From ChEMBL document CHEMBL1122597, “Palladium (II)-catalyzed olefin-coupling reactions of kainic acid: effects of substitution on the isopropenyl group on receptor binding” (J Med Chem, 1984) come the findings set out here.

The assay is filed under the species Rattus norvegicus. As to the kind of experiment: Concentration that produces 50% displacement of [3H]-kainic acid from nerve cell membrane receptor sites. Type of assay: functional.
Take `C/C(=C/c1cccc([N+](=O)[O-])c1)C1CN[C@H](C(=O)O)C1CC(=O)O` (some centres undefined): the 50% inhibitory concentration (IC50) was determined as 417 nM.

`C=C(C)[C@H]1CN[C@H](C(=O)O)[C@H]1CC(=O)O` [KAINIC ACID] had an IC50 of 17.8 nM.

For `C/C(=C\c1cccc([N+](=O)[O-])c1)C1CN[C@H](C(=O)O)C1CC(=O)O` (some centres undefined), the half-maximal inhibitory concentration (IC50) was 79.4 nM.

For `CC(C)[C@H]1CN[C@H](C(=O)O)[C@H]1CC(=O)O` [DIHYDROKAINATE], the IC50 stood at 646 nM.
